Melting point data for 89 compounds are collected here from a melting point compilation (Tetko et al.; mined from patent text by program, amines drawn as free bases though some values may be those of a salt).

`COc1cc(C)c2[nH]ccc2c1C(C)(N)c1nc2cc(C#N)ccc2[nH]1` (single isomer, unassigned; (-)) returned a melting point of 201 °C.

Compound `Cc1nc(C)n(-c2cc(C)c3[nH]c(=O)ccc3c2)c1C#N` registered a melting point of 334 to 337 °C.

Compound `N#CC(C#N)=Cc1ccc(OCc2ccccc2)cc1` came in with a melting point of 146 to 148 °C.

The compound `C1=CC(Nc2ccccc2)C(=Nc2ccccc2)N1` (centres undefined) returned a melting point of 137 to 139 °C.

For the compound `C=CCn1c(C)c(C)c2cnnc(OCc3ccccc3)c21`, the melting point fell in the range of 115 to 116 °C.

The compound `CC1=CC(OC(=O)C=Cc2ccc(O)cc2)C(O)C(C)(C)CC1=O` (centres undefined) came in with a melting point of 176 to 177 °C.

In turn, `Cc1oc(-c2ccccc2)nc1COc1ccc(CON)cc1` gave a melting point of 68 to 69 °C.

`Cc1ccnc(P(=O)(O)O)c1` returned a melting point of 273 °C.

Consider `C[Si](C)(C)OC(Cn1ccnc1)(Cn1cncn1)c1ccc(F)cc1F` (centres undefined), for which the melting point was in the range of 87 to 89 °C.

`CC1Cc2cc3c(cc2C(c2ccc([N+](=O)[O-])cc2)=NN1c1nncs1)OCO3` (centres undefined) showed a melting point of 212 to 213 °C.

Compound `O=C(NCc1ccccn1)Nc1cc(-n2cc(-c3ccccc3)oc2=O)ccn1` gave a melting point of 208 to 209 °C.

Compound `O=c1[nH]c(C=Cc2ccc([N+](=O)[O-])o2)nc2ccccc12` showed a melting point of 327 °C.

`Nc1cc(F)c([N+](=O)[O-])cc1F` came in with a melting point of 153 °C.

Take `CCC(CC)Nc1cc(C(=O)O)ccc1N1C(=O)CCC1(CO)CO`: the melting point was in the range of 220 to 221 °C.

In the case of `N#Cc1ccc2oc(CCc3ccc(C(=O)On4nnc5ccccc54)cc3)cc2c1`, the melting point is 171 to 172 °C.

With `Cn1c(C(F)(F)F)cc(=O)n(-c2ccc3snc(CF)c3c2)c1=O`, the melting point lay in the range of 201 to 202 °C.

`O=[N+]([O-])c1ccc(-c2ccc(S(=O)c3ccc(Cl)c([N+](=O)[O-])c3)cc2)cc1` (centres undefined): the melting point lay in the range of 220 to 222 °C.

Turning to `CCCc1ccc(-c2ccn([C@H](CC(=O)O)C(=O)N[C@H](C(=O)NC)C(C)(C)C)c2)cc1`, the melting point is 104 to 106 °C.

The compound `CCOC(=O)c1cc2cc(C)c(C)cc2[nH]1` came in with a melting point of 164 °C.

`Cn1ncc(NCCN2CCC(c3noc4cc(F)ccc34)CC2)c(Cl)c1=O`: the melting point was 145 to 147 °C.

`O=c1[nH]c2ccsc2c(=O)n1CCN1CCC(=C(c2ccc(F)cc2)c2ccc(F)cc2)CC1` had a melting point of 207 to 208 °C.

The compound `c1cncc(-c2ccc3c(c2)OCO3)c1` displayed a melting point of 92 to 92.5 °C.

Take `COc1ccc(S(=O)(=O)C(CCCCOc2ccccc2)(Cc2cccnc2)C(=O)O)cc1` (centres undefined): the melting point is 148 to 151 °C.

Compound `CN1CCC(C2c3sccc3C=Cn3ncnc32)CC1` (centres undefined) had a melting point of 137 °C.

The compound `C1=CNC2=NCCN2C1` displayed a melting point of 107 to 113 °C.

`Cc1cccc(COCCCC(=O)O)c1` displayed a melting point of 53 to 54 °C.

The compound `O=C(O)CCc1oc(=S)[nH]c1-c1ccc(Cl)cc1` yielded a melting point of 196 to 197 °C.

In turn, `N#Cc1cn(-c2ccc(F)cc2F)c(=O)n(SC(Cl)(Cl)Cl)c1=O` showed a melting point of 196 to 198 °C.

`CCC1Nc2cc(F)ccc2-n2cccc21` (centres undefined) had a melting point of 49 to 51 °C.

For the compound `CC(=O)Nc1nc(OC(C)C)c2nc(Cl)ccc2n1`, the melting point turned out to be 244 °C.

For `COc1ccc(CNC(=O)C(C)=NNc2ccc(Cl)cc2)cc1`, the melting point was in the range of 156 to 158 °C.

`OCc1c(Cl)c(Cl)c(Cl)c(CO)c1Cl` registered a melting point of 228 to 230 °C.

As for `COC(=O)c1ccccc1-n1c(CCl)nc2ccc(Br)cc2c1=O`, the melting point is 235 to 237 °C.

Compound `CC(=O)c1ccc(-c2ccc(N(Cc3ccccc3)Cc3ccccc3)cc2)c(C)c1` displayed a melting point of 145 to 146 °C.

`O=c1c2ccccc2nc(-c2ccccc2Cl)n1O` returned a melting point of 211 °C.

Compound `Nc1ccc2ncc(Br)cc2n1` returned a melting point of 168 to 169 °C.

Consider `CCCCCCCCCCCCCCCCCCOc1cc(OCCCOc2ccc(S(C)(=O)=O)cc2)cc(C(=O)OC)c1`, for which the melting point lay within 101 to 102 °C.

For `Cc1oc(-c2ccccc2)nc1CCOc1ccc(CCc2nnn[nH]2)cc1`, the melting point lay within 143 to 144 °C.

With `Fc1ccc(C(CN2CCOCC2)=C2SCCCS2)cc1`, the melting point fell in the range of 104 to 106 °C.

`O=Cc1ccc2c(c1)CCC(C(=O)O)C2` (centres undefined) had a melting point of 205 to 212 °C.

In turn, `CC(C)OC(=O)C(C)n1c(C(F)(F)F)nc2cc(F)c(-n3c(=O)cc(C(F)(F)F)n(C)c3=O)cc21` (centres undefined) returned a melting point of 133 to 135 °C.

With `Cc1ccc(-c2cncc(OC3SCC(O)C(O)C3O)c2)cc1` (centres undefined), the melting point amounted to 228 °C.

In turn, `O=C1C(NCCN2CCCC2)=CC(=O)c2oc(-c3cccc(Br)c3)nc21` had a melting point of 169 to 170 °C.

For the compound `CCCCc1cn(-c2ccccc2CC)c(=O)n1Cc1ccc(-c2ccccc2-c2nnn[nH]2)cc1`, the melting point lay within 188 to 189 °C.

`CCOC(=O)c1cnn(-c2c(Cl)cc(Cl)cc2Cl)c1O`: the melting point stood at 228 °C.

Compound `CCOc1nc(C(F)(F)F)cc(=O)n1-c1cc(OC(C)C)c(Cl)cc1F` registered a melting point of 101 to 103 °C.

The compound `O=C(O)c1ccccc1C(=O)c1ccc(O)c(-c2ccccc2)c1` gave a melting point of 273 °C.

Take `COc1ccc2c(c1)CC(NC(=S)NCCOC(=O)c1ccccc1)CC2` (centres undefined): the melting point lay in the range of 103 to 106 °C.

On to `O=[N+]([O-])c1cc(Cl)c(Cl)cc1NCCCO`, for which the melting point came out at 97 °C.

Consider `CCCCC(C#N)(Cn1ccnc1)c1ccc(S(=O)c2ccccc2)cc1` (centres undefined), for which the melting point is 55 to 61 °C.

`CC(C)n1nc(-c2c(OCCN)nc(N)nc2-c2ccccc2)ccc1=O` showed a melting point of 213 to 216 °C.

As to `CCCC1(S(=O)(=O)CCCN2CCN(C)CC2)C(=O)N(S(=O)(=O)c2ccc3ccccc3c2)C2CCNC21` (centres undefined), the melting point lay within 186 to 187 °C.

For `FC(F)c1cc(-c2cccc(C(F)(F)F)c2)nc2c(I)cnn12`, the melting point amounted to 130 °C.

Compound `Cn1ccc(-c2ccc(C(=O)O)c(Cl)c2)n1` yielded a melting point of 232 to 233 °C.

With `CN(C(=O)Nc1ccc(Cl)c(Cl)c1)C(Cl)C(Cl)(Cl)Cl` (centres undefined), the melting point was in the range of 132 to 140 °C.

Compound `CCN1CC(=O)N(C)c2cc(Nc3ncc(Cl)c(Nc4ccc(OC)cc4-n4cccn4)n3)c(OC)cc2C1` gave a melting point of 105 to 107 °C.

`Cn1ccc2ccc(N3Cc4ccc(-c5cccnc5)cc4C3=O)cc21` gave a melting point of 187 to 188 °C.

Take `C/C(=C/CO)c1cc2c(cc1O)C(C)(C)CCC2(C)C`: the melting point was in the range of 144 to 145 °C.

Turning to `C[C@H](C#Cc1sccc1COCc1ccc(F)cc1)N(O)C(N)=O`, the melting point was 94 to 95 °C.

The compound `CCCOc1ccc(C(O)CN2CCOCC2)cc1-c1nc2c(CCC)nn(C)c2c(=O)[nH]1` (centres undefined) displayed a melting point of 104 to 105 °C.

For the compound `CSc1ccc(-c2nc(SC)c(C(=O)O)c(=O)n2-c2ccc(C)cc2)cc1`, the melting point is 173 to 175 °C.

Turning to `CCCc1nn(C)c2c(=S)[nH]c(-c3ccccc3OC)nc12`, the melting point lay within 160 to 161 °C.

`Brc1ccc2c(c1)C(c1ccccn1)=NCc1nncn1-2` showed a melting point of 252 to 255 °C.

Compound `CC(=O)NCCCc1ccc(OC2CCc3cc(Cl)ccc32)cc1` (centres undefined) registered a melting point of 111 to 112 °C.

As for `FC(F)(F)Oc1ccc(Nc2cc(-c3ccccc3)nc(-c3ccccc3)n2)cc1`, the melting point fell in the range of 220 to 222 °C.

In the case of `CC(C)(C)OC(=O)Nc1ccc(-c2cccc(F)c2F)cc1NC(=O)CC(=O)c1cccc(C#N)c1`, the melting point turned out to be 118 °C.

In turn, `CCN1c2ncc(COc3cccc(C(N)=O)c3)cc2C(=O)N(C)c2ccc(Cl)nc21` showed a melting point of 96 to 98 °C.

On to `COc1ccc2[nH]c(/C=C/C=O)cc2c1`, for which the melting point lay within 145 to 147 °C.

`O=C1c2ccccc2C(=O)c2c1cc(CBr)c1c2CCC1` gave a melting point of 225 to 230 °C.

With `Clc1c2ccccc2nc2occc12`, the melting point lay in the range of 112 to 113 °C.

`CCOC(=O)/C=C/c1ccccc1C#N`: the melting point fell in the range of 60 to 62 °C.

In the case of `COC(=O)C1=C(C)NC(C)=C(C(=O)O)C1c1ccccc1C(F)(F)F` (single isomer, unassigned; (+)), the melting point was 109 °C.

As for `CC(Oc1ccc2nc(-c3ccccc3OC(N)=O)sc2c1)c1c(F)ccc(Cl)c1Cl` (centres undefined), the melting point is 210 to 220 °C.

The compound `Cc1ccc(-c2ccnc3c(C(=O)c4cccs4)cnn23)cc1NC(=O)NC(C)C` had a melting point of 225 to 227 °C.

Consider `CC(=O)CC(=O)NCC1C(NC(=O)CC(C)=O)C(C)CC1(C)C` (centres undefined), for which the melting point lay in the range of 94 to 114 °C.

`Cc1ccc2c(=O)c(-c3nnnn3C)cn(C)c2c1`: the melting point lay within 254 to 255 °C.

For the compound `COc1ccc(F)cc1C(=O)NC1COc2cc(OC)c(S(=O)(=O)NC(=S)NC(C)C)cc2C1` (centres undefined), the melting point was in the range of 179 to 180 °C.

`CCc1[nH]n(C2CCCC2)c2nc(-c3cccc(-n4ccnc4)c3)nc(=O)c1-2` registered a melting point of 264 to 265 °C.

In turn, `COC(=O)c1nc2cc(Cl)cc(C)c2c(O)c1C(=O)OC` displayed a melting point of 117 to 119 °C.

As for `CC(=O)C(=[N+]=[N-])C(=O)CCc1ccc(S(=O)(=O)Cl)cc1`, the melting point is 58 to 59.5 °C.

`CCOC(=O)C(=O)Nc1cc(NC(=O)NC)ccc1O` had a melting point of 235 to 236 °C.

In turn, `Cc1csc2ncc(C(O)CCc3ccccc3)n12` (centres undefined) returned a melting point of 144 to 145 °C.

With `CC1=C(C#N)S(=O)(=O)c2cc(Cl)ccc2N1`, the melting point fell in the range of 297 to 299 °C.

For the compound `Cc1nnc2n1-c1sc(Cl)cc1C(c1ccccn1)=NC2`, the melting point fell in the range of 174 to 176 °C.

Compound `CCOC(=O)/C=C/[C@H]1CC[C@H](c2ccc(C#N)cc2)CC1` had a melting point of 125 °C.

Compound `COc1cc(-c2nc3sccn3c2-c2ccnc(N[C@@H]3CCCN(S(=O)(=O)c4ccc(Cl)cc4)C3)n2)ccc1F` gave a melting point of 142 to 143 °C.

Take `Cc1cc(CCCCCCCOc2ccc(C3=N[C@@H](C(C)C)CO3)cc2)on1`: the melting point lay in the range of 122 to 123 °C.

Compound `C[C@@H]1O[C@](C#CC2CC2)(C(F)(F)F)c2cc(F)ccc2NC1=O` (relative stereo) showed a melting point of 184 to 185 °C.

As to `COc1cc(C2CCCO2)cc(OC)c1OC` (centres undefined), the melting point was in the range of 102 to 104 °C.

By melting point is commonly meant the temperature, or range, at which the solid turns liquid.
